According to the supplement of paper PMC10307832:

Legend:
Assay in all cases: relative viability (nuclei count vs DMSO), 5 days (fraction); higher = more cells survive
Gemcitabine + Alpelisib = compound: Nc1ccn([C@@H]2O[C@H](CO)[C@@H](O)C2(F)F)c(=O)n1 [Gemcitabine] + Cc1nc(NC(=O)N2CCC[C@H]2C(N)=O)sc1-c1ccnc(C(C)(C)C(F)(F)F)c1 [Alpelisib] (partner 2 µM)
Procedure, shortened: (§1)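 Each reported value is a median over duplicate plates. It expresses relative viability: treated-well nuclei count divided by vehicle-well nuclei count. Lung cancer cell lines in 1536-well plates were dosed by pin tool a day after seeding, alone with one drug or with a fixed anchor-drug dose plus five library-drug doses (not always all listed) in √10 steps, and nuclei were counted after 5 days.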

Gemcitabine + Pemetrexed = compound: Nc1ccn([C@@H]2O[C@H](CO)[C@@H](O)C2(F)F)c(=O)n1 [Gemcitabine] + Nc1nc2[nH]cc(CCc3ccc(C(=O)N[C@@H](CCC(=O)O)C(=O)O)cc3)c2c(=O)[nH]1 [Pemetrexed] (partner 0.2 µM)
Procedure, shortened: as §1

Gemcitabine + Foretinib = compound: Nc1ccn([C@@H]2O[C@H](CO)[C@@H](O)C2(F)F)c(=O)n1 [Gemcitabine] + COc1cc2c(Oc3ccc(NC(=O)C4(C(=O)Nc5ccc(F)cc5)CC4)cc3F)ccnc2cc1OCCCN1CCOCC1 [Foretinib] (partner 0.25 µM)
Procedure, shortened: as §1

Gemcitabine + Olaparib = compound: Nc1ccn([C@@H]2O[C@H](CO)[C@@H](O)C2(F)F)c(=O)n1 [Gemcitabine] + O=C(c1cc(Cc2n[nH]c(=O)c3ccccc23)ccc1F)N1CCN(C(=O)C2CC2)CC1 [Olaparib] (partner 8 µM)
Procedure, shortened: as §1

Row | Cell Line | relative viability (Gemcitabine + Alpelisib; first compound 0.001 µM) | relative viability (Gemcitabine + Alpelisib; first compound 0.003162 µM) | relative viability (Gemcitabine + Alpelisib; first compound 0.01 µM) | relative viability (Gemcitabine + Alpelisib; first compound 0.03162 µM) | relative viability (Gemcitabine + Alpelisib; first compound 0.1 µM) | relative viability (Gemcitabine + Pemetrexed; first compound 0.001 µM) | relative viability (Gemcitabine + Pemetrexed; first compound 0.003162 µM) | relative viability (Gemcitabine + Pemetrexed; first compound 0.01 µM) | relative viability (Gemcitabine + Pemetrexed; first compound 0.03162 µM) | relative viability (Gemcitabine + Pemetrexed; first compound 0.1 µM) | relative viability (Gemcitabine + Foretinib; first compound 0.001 µM) | relative viability (Gemcitabine + Foretinib; first compound 0.003162 µM) | relative viability (Gemcitabine + Foretinib; first compound 0.01 µM) | relative viability (Gemcitabine + Foretinib; first compound 0.03162 µM) | relative viability (Gemcitabine + Foretinib; first compound 0.1 µM) | relative viability (Gemcitabine + Olaparib; first compound 0.001 µM) | relative viability (Gemcitabine + Olaparib; first compound 0.003162 µM) | relative viability (Gemcitabine + Olaparib; first compound 0.01 µM) | relative viability (Gemcitabine + Olaparib; first compound 0.03162 µM) | relative viability (Gemcitabine + Olaparib; first compound 0.1 µM)
1 | NCI-H2087 | 1.26 | 0.872 | 0.38 | 0.15 | 0.14 | 0.666 | 0.581 | 0.263 | 0.113 | 0.105 | 1.14 | 0.708 | 0.245 | 0.164 | 0.111 | 0.69 | 0.413 | 0.254 | 0.0942 | 0.0872
2 | NCI-H2228 | 0.74 | 0.534 | 0.144 | 0.123 | 0.134 | 0.348 | 0.332 | 0.166 | 0.092 | 0.112 | 0.913 | 0.536 | 0.198 | 0.183 | 0.0975 | 0.627 | 0.333 | 0.152 | 0.144 | 0.0825
3 | NCI-H727 | 0.412 | 0.311 | 0.199 | 0.221 | 0.212 |  |  |  |  |  | 0.815 | 0.71 | 0.376 | 0.363 | 0.276 | 0.816 | 0.592 | 0.35 | 0.464 | 0.426
4 | NCI-H650 | 0.816 | 0.486 | 0.179 | 0.177 | 0.159 | 0.865 | 0.555 | 0.222 | 0.128 | 0.12 | 0.998 | 0.648 | 0.197 | 0.175 | 0.175 | 0.364 | 0.241 | 0.113 | 0.115 | 0.102
5 | NCI-H520 | 0.933 | 0.897 | 0.461 | 0.195 | 0.142 | 0.663 | 0.719 | 0.275 | 0.177 | 0.161 | 0.887 | 0.684 | 0.286 | 0.199 | 0.153 | 0.388 | 0.48 | 0.174 | 0.159 | 0.132
6 | EBC-1 | 0.589 | 0.21 | 0.168 | 0.187 | 0.165 |  |  |  |  |  | 0.0943 | 0.0886 | 0.0845 | 0.0844 | 0.0813 | 0.73 | 0.195 | 0.141 | 0.116 | 0.107
7 | NCI-H661 | 0.594 | 0.503 | 0.185 | 0.177 | 0.172 | 0.895 | 0.998 | 0.891 | 0.299 | 0.216 | 1.04 | 0.871 | 0.956 | 0.341 | 0.218 | 0.78 | 0.783 | 0.655 | 0.274 | 0.232
8 | NCI-H1299 | 1.04 | 1.1 | 1.03 | 1.05 | 1.09 |  |  |  |  |  | 1.09 | 1.08 | 1.09 | 1.07 | 1.08 | 0.984 | 1.03 | 0.962 | 1 | 0.937
9 | LK-2 | 1.23 |  | 0.447 | 0.242 | 0.251 | 0.298 | 0.321 | 0.238 | 0.14 | 0.114 | 1.16 | 1.13 | 0.808 | 0.276 | 0.18 | 0.878 | 0.722 | 0.386 | 0.153 | 0.148
